The source of these data is US10800752B2, “Substituted naphtho[2,3-b]furans as water-soluble prodrugs for preventing and/or treating cancer” (BOSTON BIOMEDICAL, INC., priority 2015, dated 2020).

SMILES strings stand for the structures. Structures can show the parent of a compound that is named as a salt. Some results are limits rather than exact numbers.

Data set [1] can be described thus: Evaluation of a conversion rate to 2-acetylnaphtho[2,3-b]furan-4,9-dione in pH 7.4 phosphate buffer solution. In kind it is physicochemical. The note with it: Phosphate buffer solution (pH 7.4), 1 umol/L, 37° C., incubation time 120 min. The procedure: (§1) For test compounds, the decrease rate of the test compounds and the conversion rate thereof to 2-acetylnaphtho[2,3-b]furan-4,9-dione in human plasma, CD1 mouse plasma, and pH 7.4 phosphate buffer solution were measured.
(§2) Test compounds were incubated at the concentration of 1 umol/L in human plasma (cat. no. 12250210, COSMO BIO), CD1 mouse plasma (cat. no. AP3054, KAC), and phosphate buffer solution at 37° C., and removed at predetermined times (0, 5, 10, 30, 60, and 120 minutes). After protein-removing treatment was performed, they are analyzed with LC-MS. It should be noted that the protein-removing treatment used acetonitrile containing: 10% volume of 1 mol/L hydrochloric acid; 1% volume of 46% citric acid; and phenytoin as an internal standard.
(§3) The measurement condition of LC-MS is as described below. LC-MS condition column: Kinetex 2.6 u PFP 100 A 50×2.1 mm Column temperature: 40° C.
(§4) Mobile phase: A: 0.1% formic acid-containing water
(§5) • B: 0.1% formic acid-containing acetonitrile A/B(min): 95/5(0)→5/95(3)→5/95(4)→95/5(4.1)→95/5(6) Flow rate: 0.4 mL/min Detection: ESI (positive mode) Injection volume: 10 uL
(§6) Measurement values are calculated from the peak area ratio in LC-MS between an internal standard material, phenytoin and an active form, 2-acetylnaphtho[2,3-b]furan-4,9-dione, and are expressed in %.
(§7) In the same way as Example 6, the incubation time was set as 120 minutes later, and the conversion rate of each of various test compounds to 2-acetylnaphtho[2,3-b]furan-4,9-dione in human plasma, CD1 mouse plasma, and pH 7.4 phosphate buffer solution was measured. A series of the present compounds were confirmed to be converted to 2-acetylnaphtho[2,3-b]furan-4,9-dione in pH 7.4 phosphate buffer solution in addition to human plasma and CD1 mouse plasma. Therefore, a series of the test compounds of the present invention were confirmed to be converted to the activated form via a route other than an enzymatic conversion.

Data set [2] is described as follows: Evaluation of a conversion rate to 2-acetylnaphtho[2,3-b]furan-4,9-dione in CD1 mouse plasma. Type of data set: in vitro ADME. As to conditions: 1 umol/L. The protocol:
as §1, §2, §3, §4, §5, §6, §7

The nature of data set [3]: Evaluation of a conversion rate to 2-acetylnaphtho[2,3-b]furan-4,9-dione in human plasma. Type of data set: in vitro ADME. As to conditions: 1 umol/L. The protocol:
as §1, §2, §3, §4, §5
In the same way as Example 6, the incubation time was set as 120 minutes later, and the conversion rate of each of various test compounds to 2-acetylnaphtho[2,3-b]furan-4,9-dione in human plasma, CD1 mouse plasma, and pH 7.4 phosphate buffer solution was measured.

Another data set in a line: Solubility test. As to conditions: 50 mmol/L glycine buffer solution (pH 2.0), room temperature, 24 hours shaking.
The mark [4] stands for this setting: CD1 mouse plasma, 37° C., incubation time 120 min.
The mark [5] stands for this setting: Human plasma, 37° C., incubation time 120 min.

Method for Solubility test: A water-soluble prodrug was added into 50 mmol/L glycine buffer solution (pH 2.0). After shaking at room temperature for 24 hours, the mixture was filtered through a membrane filter, and then the filtrate was measured with HPLC.
The measurement condition of HPLC is as described below. HPLC condition column: Acquity UPLC BEH C18, 1.7 um, 50×2.1 mm
Mobile phase: A: 0.1% trifluoroacetic acid-containing water

For `CC(=O)c1cc2c(OC(=O)OCCCCN)c3ccccc3c(OC(=O)OCCCCN)c2o1` [Example 21, 2-Acetylnaphtho[2,3-b]furan-4,9-diyl bis(4-aminobutyl)bis(carbonate)dihydrochloride], the “% Measurement value (conversion rate to 2-acetylnaphtho[2,3-b]furan-4,9-dione)” value (shortened to “% Measurement value”) in data set [1] is listed as 24%; in data set [2] (CD1, mouse, 120 min), 44%; in data set [3] (human, 120 min), 40%.
As to `CCNCCCCOC(=O)Oc1c2ccccc2c(OC(=O)OCCCCNCC)c2oc(C(C)=O)cc12.Cl.Cl` [Example 28], the “% Measurement value” value in data set [1] worked out at 34%; in data set [2] (setting [4]), 85%; in data set [3] (setting [5]), 73%.
The matching figures for `CC(=O)c1cc2c(OC(=O)NCCOCCN)c3ccccc3c(OC(=O)NCCOCCN)c2o1.Cl.Cl` [Example 9]: 50%, 81% and 65%.
Turning to `CC(=O)c1cc2c(OC(=O)NCC[C@H](N)C(=O)O)c3ccccc3c(OC(=O)NCC[C@H](N)C(=O)O)c2o1.Cl.Cl` [Example 12], the “% Measurement value” value was found to be 63% in data set [1], 78% in data set [2] (setting [4]) and 63% in data set [3] (setting [5]).
Take `CC(=O)c1cc2c(OC(=O)NCCNCCS(=O)(=O)N(C)C)c3ccccc3c(OC(=O)NCCNCCS(=O)(=O)N(C)C)c2o1.Cl.Cl` [Example 57]: the “% Measurement value” value is 34% in data set [1] and 68% in data set [3] (setting [5]). The “Solubility in pH 2.0 buffer solution” value in “Solubility test” is recorded as >5.0 mg/mL.
The matching figures for `CC(=O)c1cc2c(OC(=O)NCCNCCCC(=O)O)c3ccccc3c(OC(=O)NCCNCCCC(=O)O)c2o1.Cl.Cl` [Example 42]: 54%, 69% and >5.0 mg/mL.
For the compound `CC(=O)c1cc2c(O)c3ccccc3c(OC(=O)NCCCNCCS(C)(=O)=O)c2o1.Cl` [Example 82], the results for the “% Measurement value” value in data set [1] and in data set [3] (setting [5]) were 25% and 74%, respectively. In addition, the “Solubility in pH 2.0 buffer solution” value in the data set “Solubility test” was 0.1 mg/mL.
As to `CC(=O)c1cc2c(OC(=O)NCCNCCS(=O)(=O)N3CCCCC3)c3ccccc3c(OC(=O)NCCNCCS(=O)(=O)N3CCCCC3)c2o1.Cl.Cl` [Example 56], the “% Measurement value” value in data set [1] is reported as 30%; in data set [3] (setting [5]) it was 63%. Also, the “Solubility in pH 2.0 buffer solution” value in “Solubility test” is 3.3 mg/mL.
The matching figures for `CC(=O)c1cc2c(OC(=O)NCCNCCS(=O)(=O)C(C)C)c3ccccc3c(OC(=O)NCCNCCS(=O)(=O)C(C)C)c2o1.Cl.Cl` [Example 58]: 40%, 81% and 1.5 mg/mL.
On the same counts, the results for `CC(=O)c1cc2c(OC(=O)NCCCNCC(F)(F)F)c3ccccc3c(OC(=O)NCCCNCC(F)(F)F)c2o1.Cl.Cl` [Example 53] are 41%, 100% and >5.0 mg/mL.
As to `CC(=O)c1cc2c(OC(=O)NCCNCc3ccccc3)c3ccccc3c(OC(=O)NCCNCc3ccccc3)c2o1.Cl.Cl` [Example 55], the “% Measurement value” value was found to be 63% in data set [1] and 86% in data set [3] (setting [5]). For the same compound, the “Solubility in pH 2.0 buffer solution” value in the data set “Solubility test” is listed as >5.0 mg/mL.
The matching figures for `CC(=O)c1cc2c(O)c3ccccc3c(OC(=O)NCCNCCOC(N)=O)c2o1.Cl` [Example 87]: 36%, 38% and 4.0 mg/mL.
For `COC(=O)NCCNCCNC(=O)Oc1c2ccccc2c(OC(=O)NCCNCCNC(=O)OC)c2oc(C(C)=O)cc12.Cl.Cl` [Example 67], the “% Measurement value” value in data set [1] turned out to be 60%; in data set [3] (setting [5]), 78%. For the same compound, in the data set “Solubility test”, the “Solubility in pH 2.0 buffer solution” value is >5.0 mg/mL.
In the case of `CC(=O)c1cc2c(O)c3ccccc3c(OC(=O)NCCCNCC(=O)N3CCC3)c2o1.Cl` [Example 86], the results for the “% Measurement value” value in data set [1] and in data set [3] (setting [5]) were 38% and 55%, respectively. The “Solubility in pH 2.0 buffer solution” value in the data set “Solubility test” is listed as >5.0 mg/mL.
For the compound `CC(=O)c1cc2c(OC(=O)NCCNCC(=O)N3CCC3)c3ccccc3c(OC(=O)NCCNCC(=O)N3CCC3)c2o1.Cl.Cl` [Example 62], the “% Measurement value” value in data set [1] stood at 37%; in data set [3] (setting [5]), 65%. Further, the “Solubility in pH 2.0 buffer solution” value in “Solubility test” was >5.0 mg/mL.
On the same counts, the results for `COC(=O)OCCNCCCNC(=O)Oc1c2ccccc2c(OC(=O)NCCCNCCOC(=O)OC)c2oc(C(C)=O)cc12.Cl.Cl` [Example 70] are 48%, 66% and >5.0 mg/mL.
On the same counts, the results for `COC(=O)CNCCCNC(=O)Oc1c2ccccc2c(OC(=O)NCCCNCC(=O)OC)c2oc(C(C)=O)cc12.Cl.Cl` [Example 47] are 65%, 92% and >5.0 mg/mL.
In the case of `CC(=O)c1cc2c(O)c3ccccc3c(OC(=O)NCCNCCS(C)(=O)=O)c2o1.Cl` [Example 81], the “% Measurement value” value is 27% in data set [1] and 74% in data set [3] (setting [5]). Moreover, in the data set “Solubility test”, the “Solubility in pH 2.0 buffer solution” value turned out to be 0.9 mg/mL.
Consider `CC(=O)c1cc2c(OC(=O)NCCCNCC(=O)N3CCC3)c3ccccc3c(OC(=O)NCCCNCC(=O)N3CCC3)c2o1.Cl.Cl` [Example 63], for which the figures for the “% Measurement value” value in data set [1] and in data set [3] (setting [5]) were 51% and 59%, respectively. Also, the “Solubility in pH 2.0 buffer solution” value in “Solubility test” is given as >5.0 mg/mL.
On the same counts, the results for `COC(=O)OCCNCCCNC(=O)Oc1c2ccccc2c(O)c2cc(C(C)=O)oc12.Cl` [Example 92] are 26%, 34% and >5.0 mg/mL.
As for `COC(=O)NCCNCCCNC(=O)Oc1c2ccccc2c(OC(=O)NCCCNCCNC(=O)OC)c2oc(C(C)=O)cc12.Cl.Cl` [Example 68], the “% Measurement value” value in data set [1] came out at 59%; in data set [3] (setting [5]), 73%. Also, the “Solubility in pH 2.0 buffer solution” value in the data set “Solubility test” is listed as >5.0 mg/mL.
For the compound `CC(=O)c1cc2c(O)c3ccccc3c(OC(=O)NCCCNCCS(=O)(=O)N(C)C)c2o1.Cl` [Example 80], the “% Measurement value” value in data set [1] amounted to 32%; in data set [3] (setting [5]) it was 54%. In addition, the “Solubility in pH 2.0 buffer solution” value in “Solubility test” amounted to 1.0 mg/mL.
